# Molecular target: T1, NanR (Escherichia coli, UniProt P0A8W0)
# T1 construct: crystals by in situ chymotrypsin proteolysis
# T1 sequence (P0A8W0 1-263): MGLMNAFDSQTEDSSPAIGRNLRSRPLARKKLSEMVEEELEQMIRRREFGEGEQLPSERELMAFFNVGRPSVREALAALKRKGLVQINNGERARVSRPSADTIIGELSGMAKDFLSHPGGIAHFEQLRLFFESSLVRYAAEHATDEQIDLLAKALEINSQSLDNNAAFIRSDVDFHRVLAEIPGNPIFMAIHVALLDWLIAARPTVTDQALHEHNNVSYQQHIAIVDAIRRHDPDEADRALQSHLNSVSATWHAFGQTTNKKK
# Assay: isothermal titration calorimetry
# Conditions: 20 mM Tris-HCl pH 8.0, 150 mM NaCl; 8 °C; no DNA; Zn2+-loaded protein; effector-binding domain; allosteric
smiles,measurement,value
CC(=O)N[C@H]1[C@H]([C@H](O)[C@H](O)CO)OC(O)(C(=O)O)C[C@@H]1O (stereo partly shown) [Neu5Ac],Kd,16 µM

# Source: paper PMC8012715, “Mechanism of NanR gene repression and allosteric induction of bacterial sialic acid metabolism” (Nature Communications, 2021)
